The EC50 is the concentration that produces a half-maximal response.

Starred links: 1 amine or outer side, 2 acyl side, 3 side chain; linkers in the order of their positions; H or OH if unused. Non-standard residues stand in square brackets, D forms with d. Residues, ends and D or L forms follow the SMILES beside them. Groups on a side chain read outwards from the residue. *: point of attachment. C18 diacid = O=C(O)CCCCCCCCCCCCCCCCC(=O)*; γGlu = O=C(O)[C@H](CCC(=O)[*:2])N[*:1]; αMeF = C[C@](N)(Cc1ccccc1)C(=O)O; AEEA = NCCOCCOCC(=O)O; Aib = CC(C)(N)C(=O)O

In assay [1] the target is human GLP-1 receptor (hGLP-1R) (Homo sapiens, UniProt P43220). The assay is described as follows: cAMP production (HTRF) in CHO cells expressing hGLP-1R. The format is cell-based. Set-up: expressed in transfected cells. To be noted: for EC50: Table 6, peptides modified at position 17, cAMP in CHO hGLP-1R cells, geometric mean, read-out: hGLP-1R EC50; for % Relative Potency Ratio: Table 6, % GLP-1R activity relative to GLP-1 / % GlucR activity relative to glucagon. The essentials:
(§1)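 Read-out: HTRF cAMP (anti-cAMP cryptate donor, cAMP-d2 acceptor in conjugate/lysis buffer), converted to % Delta F and fitted by 4-parameter logistic for EC50. Cell densities were 1×10^5 cells/mL (hGLP-1R) or 2×10^5 cells/mL (hGCGR). Stimulation lasted 30 min at room temperature.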

Assay [2] deals with human glucagon receptor (hGCGR) (Homo sapiens, UniProt P47871). Briefly: cAMP production (HTRF) in CHO cells expressing hGCGR. The format is cell-based. Set-up: expressed in transfected cells. To be noted: Table 6, peptides modified at position 17; cAMP in CHO hGCGR cells; geometric mean; read-out: hGluc-R EC50. The essentials:
as §1

Sequence of human glucagon receptor (hGCGR) (P47871 26-477): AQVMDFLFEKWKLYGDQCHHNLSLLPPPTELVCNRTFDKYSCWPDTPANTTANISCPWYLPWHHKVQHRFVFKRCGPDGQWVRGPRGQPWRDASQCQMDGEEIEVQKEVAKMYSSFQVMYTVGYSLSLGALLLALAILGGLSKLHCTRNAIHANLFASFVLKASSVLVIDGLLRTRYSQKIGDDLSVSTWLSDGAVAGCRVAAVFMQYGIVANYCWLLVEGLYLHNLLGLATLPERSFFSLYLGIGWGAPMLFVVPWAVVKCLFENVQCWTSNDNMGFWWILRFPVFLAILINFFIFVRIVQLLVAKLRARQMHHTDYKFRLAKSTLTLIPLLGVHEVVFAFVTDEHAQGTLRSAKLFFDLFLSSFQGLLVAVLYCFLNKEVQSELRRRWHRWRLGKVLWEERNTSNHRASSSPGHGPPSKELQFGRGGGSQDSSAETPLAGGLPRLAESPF
Sequence of human GLP-1 receptor (hGLP-1R) (P43220 24-463): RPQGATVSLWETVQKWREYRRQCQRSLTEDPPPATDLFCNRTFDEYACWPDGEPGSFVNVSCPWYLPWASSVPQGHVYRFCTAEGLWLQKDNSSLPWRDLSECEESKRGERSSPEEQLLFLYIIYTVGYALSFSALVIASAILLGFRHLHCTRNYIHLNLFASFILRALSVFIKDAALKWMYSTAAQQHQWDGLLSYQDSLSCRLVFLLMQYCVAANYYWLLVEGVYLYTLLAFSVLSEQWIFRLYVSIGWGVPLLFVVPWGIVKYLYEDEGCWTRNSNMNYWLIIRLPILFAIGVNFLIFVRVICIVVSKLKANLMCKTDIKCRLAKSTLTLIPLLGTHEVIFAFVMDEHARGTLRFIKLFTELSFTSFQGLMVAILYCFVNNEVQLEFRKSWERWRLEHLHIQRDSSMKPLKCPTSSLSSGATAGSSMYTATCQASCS

For `CC(C)C[C@H](NC(=O)[C@H](Cc1c[nH]c2ccccc12)NC(=O)[C@H](CCCNC(=N)N)NC(=O)[C@@H](NC(=O)[C@H](Cc1ccccc1)NC(=O)[C@H](CC(=O)O)NC(=O)[C@H](CCC(N)=O)NC(=O)[C@H](C)NC(=O)[C@H](CCCNC(=N)N)NC(=O)[C@H](CCCCNC(=O)COCCOCCNC(=O)COCCOCCNC(=O)CC[C@H](NC(=O)CCCCCCCCCCCCCCCCC(=O)O)C(=O)O)NC(=O)[C@H](CO)NC(=O)[C@H](CC(=O)O)NC(=O)[C@H](CC(C)C)NC(=O)[C@](C)(Cc1ccccc1)NC(=O)[C@H](CCCCN)NC(=O)[C@H](CO)NC(=O)[C@@H](NC(=O)[C@H](CC(=O)O)NC(=O)[C@H](CO)NC(=O)[C@@H](NC(=O)[C@H](Cc1ccccc1)NC(=O)[C@@H](NC(=O)CNC(=O)[C@H](CCC(N)=O)NC(=O)C(C)(C)NC(=O)[C@@H](N)Cc1c[nH]cn1)[C@@H](C)O)[C@@H](C)O)C(C)C)C(C)C)C(=O)N[C@@H](CC(C)C)C(=O)NC(C)(C)C(=O)N[C@H](C(=O)NCC(=O)O)[C@@H](C)O` [Peptide 30] (H-H[Aib]QGTFTSDVSK[αMeF]LDSK([AEEA-AEEA-γGlu-C18 diacid])RAQDFVRWLL[Aib]TG-OH; N-terminus assumed), the figures for the EC50 in assay [1] and in assay [2] were 0.0527 nM and 0.235 nM, respectively. The “% Relative Potency Ratio” value in assay [1] is listed as 8.8.

For the compound `CC(C)C[C@H](NC(=O)[C@H](Cc1c[nH]c2ccccc12)NC(=O)[C@H](CCCNC(=N)N)NC(=O)[C@@H](NC(=O)[C@H](Cc1ccccc1)NC(=O)[C@H](CC(=O)O)NC(=O)[C@H](CCC(N)=O)NC(=O)[C@H](C)NC(=O)[C@H](CCCNC(=N)N)NC(=O)[C@H](CCCCNC(=O)COCCOCCNC(=O)COCCOCCNC(=O)CC[C@H](NC(=O)CCCCCCCCCCCCCCCCC(=O)O)C(=O)O)NC(=O)[C@H](CO)NC(=O)[C@H](CC(=O)O)NC(=O)[C@H](CC(C)C)NC(=O)[C@](C)(Cc1ccccc1)NC(=O)[C@H](CCCCN)NC(=O)[C@H](CO)NC(=O)[C@@H](NC(=O)[C@H](CC(=O)O)NC(=O)[C@H](CO)NC(=O)[C@@H](NC(=O)[C@H](Cc1ccccc1)NC(=O)[C@@H](NC(=O)CNC(=O)[C@H](CCC(N)=O)NC(=O)C(C)(C)NC(=O)[C@@H](N)Cc1c[nH]cn1)[C@@H](C)O)[C@@H](C)O)C(C)C)C(C)C)C(=O)N[C@@H](CC(C)C)C(=O)N[C@@H](CCC(=O)O)C(=O)NC(C)(C)C(=O)NCC(=O)O` [Peptide 31] (H-H[Aib]QGTFTSDVSK[αMeF]LDSK([AEEA-AEEA-γGlu-C18 diacid])RAQDFVRWLLE[Aib]G-OH; N-terminus assumed), in assay [1], the EC50 amounted to 0.0413 nM and the “% Relative Potency Ratio” value came out at 2.7. The EC50 in assay [2] was 0.0568 nM.

For `CC[C@H](C)[C@H](NC(=O)[C@H](Cc1c[nH]c2ccccc12)NC(=O)[C@H](CCC(N)=O)NC(=O)[C@@H](NC(=O)[C@H](Cc1ccccc1)NC(=O)[C@H](CC(=O)O)NC(=O)C(C)(C)NC(=O)[C@H](C)NC(=O)[C@H](CCCNC(=N)N)NC(=O)[C@H](CCCCNC(=O)CC[C@H](NC(=O)CCCCCCCCCCCCCCCCC(=O)O)C(=O)O)NC(=O)[C@H](CO)NC(=O)[C@H](CC(=O)O)NC(=O)[C@H](CC(C)C)NC(=O)[C@](C)(Cc1ccccc1)NC(=O)[C@H](CCCCN)NC(=O)[C@H](CO)NC(=O)[C@@H](NC(=O)[C@H](CC(=O)O)NC(=O)[C@H](CO)NC(=O)[C@@H](NC(=O)[C@H](Cc1ccccc1)NC(=O)[C@@H](NC(=O)CNC(=O)[C@H](CCC(N)=O)NC(=O)C(C)(C)NC(=O)[C@@H](N)Cc1c[nH]cn1)[C@@H](C)O)[C@@H](C)O)C(C)C)C(C)C)C(=O)N[C@@H](C)C(=O)N[C@@H](CC(N)=O)C(=O)N[C@H](C(N)=O)[C@@H](C)O` [Peptide 32] (H-H[Aib]QGTFTSDVSK[αMeF]LDSK([γGlu-C18 diacid])RA[Aib]DFVQWIANT-NH2; N-terminus assumed), in assay [1], the half-maximal effective concentration (EC50) turned out to be 0.013 nM and the “% Relative Potency Ratio” value worked out at 36.7. Also, in assay [2], the half-maximal effective concentration (EC50) was 0.24 nM.

In the case of `CC(C)C[C@H](NC(=O)[C@H](Cc1c[nH]c2ccccc12)NC(=O)[C@H](CCC(N)=O)NC(=O)[C@@H](NC(=O)[C@H](Cc1ccccc1)NC(=O)[C@H](CC(=O)O)NC(=O)[C@H](CCC(N)=O)NC(=O)[C@H](C)NC(=O)[C@H](CCCNC(=N)N)NC(=O)[C@H](CCCCNC(=O)COCCOCCNC(=O)COCCOCCNC(=O)CC[C@H](NC(=O)CCCCCCCCCCCCCCCCC(=O)O)C(=O)O)NC(=O)[C@H](CO)NC(=O)[C@H](CC(=O)O)NC(=O)[C@H](CC(C)C)NC(=O)[C@](C)(Cc1ccccc1)NC(=O)[C@H](CCCCN)NC(=O)[C@H](CO)NC(=O)[C@@H](NC(=O)[C@H](CC(=O)O)NC(=O)[C@H](CO)NC(=O)[C@@H](NC(=O)[C@H](Cc1ccccc1)NC(=O)[C@@H](NC(=O)CNC(=O)[C@H](CCC(N)=O)NC(=O)C(C)(C)NC(=O)[C@@H](N)Cc1c[nH]cn1)[C@@H](C)O)[C@@H](C)O)C(C)C)C(C)C)C(=O)N[C@@H](CCC(=O)O)C(=O)NC(C)(C)C(=O)N[C@H](C(=O)O)[C@@H](C)O` [Peptide 33] (H-H[Aib]QGTFTSDVSK[αMeF]LDSK([AEEA-AEEA-γGlu-C18 diacid])RAQDFVQWLE[Aib]T-OH), in assay [1], the 50% effective concentration (EC50) came out at 0.213 nM and the “% Relative Potency Ratio” value amounted to 5.1. Also, the EC50 in assay [2] was 0.548 nM.

As for `CC(C)C[C@H](NC(=O)[C@H](Cc1c[nH]c2ccccc12)NC(=O)[C@H](CCC(N)=O)NC(=O)[C@@H](NC(=O)[C@H](Cc1ccccc1)NC(=O)[C@H](CC(=O)O)NC(=O)[C@H](CCC(N)=O)NC(=O)[C@H](C)NC(=O)[C@H](CCCNC(=N)N)NC(=O)[C@H](CCCCNC(=O)COCCOCCNC(=O)COCCOCCNC(=O)CC[C@H](NC(=O)CCCCCCCCCCCCCCCCC(=O)O)C(=O)O)NC(=O)[C@H](CO)NC(=O)[C@H](CC(=O)O)NC(=O)[C@H](CC(C)C)NC(=O)[C@](C)(Cc1ccccc1)NC(=O)[C@H](CCCCN)NC(=O)[C@H](CO)NC(=O)[C@@H](NC(=O)[C@H](CC(=O)O)NC(=O)[C@H](CO)NC(=O)[C@@H](NC(=O)[C@H](Cc1ccccc1)NC(=O)[C@@H](NC(=O)CNC(=O)[C@H](CCC(N)=O)NC(=O)C(C)(C)NC(=O)[C@@H](N)Cc1c[nH]cn1)[C@@H](C)O)[C@@H](C)O)C(C)C)C(C)C)C(=O)N[C@@H](CC(C)C)C(=O)NC(C)(C)C(=O)N[C@@H](CCC(=O)O)C(=O)O` [Peptide 34] (H-H[Aib]QGTFTSDVSK[αMeF]LDSK([AEEA-AEEA-γGlu-C18 diacid])RAQDFVQWLL[Aib]E-OH; N-terminus assumed), the EC50 amounted to 0.0824 nM in assay [1] and 0.161 nM in assay [2]. Also, the “% Relative Potency Ratio” value in assay [1] is 3.9.

`CC(C)C[C@H](NC(=O)[C@H](Cc1c[nH]c2ccccc12)NC(=O)[C@H](CCC(N)=O)NC(=O)[C@@H](NC(=O)[C@H](Cc1ccccc1)NC(=O)[C@H](CC(=O)O)NC(=O)[C@H](CCC(N)=O)NC(=O)[C@H](C)NC(=O)[C@H](CCCNC(=N)N)NC(=O)[C@H](CCCCNC(=O)COCCOCCNC(=O)COCCOCCNC(=O)CC[C@H](NC(=O)CCCCCCCCCCCCCCCCC(=O)O)C(=O)O)NC(=O)[C@@H](NC(=O)[C@H](CC(=O)O)NC(=O)[C@H](CC(C)C)NC(=O)[C@](C)(Cc1ccccc1)NC(=O)[C@H](CCCCN)NC(=O)[C@H](CO)NC(=O)[C@@H](NC(=O)[C@H](CC(=O)O)NC(=O)[C@H](CO)NC(=O)[C@@H](NC(=O)[C@H](Cc1ccccc1)NC(=O)[C@@H](NC(=O)CNC(=O)[C@H](CCC(N)=O)NC(=O)C(C)(C)NC(=O)[C@@H](N)Cc1c[nH]cn1)[C@@H](C)O)[C@@H](C)O)C(C)C)[C@@H](C)O)C(C)C)C(=O)N[C@@H](CC(C)C)C(=O)NC(C)(C)C(=O)N[C@H](C(=O)O)[C@@H](C)O` [Peptide 35] (H-H[Aib]QGTFTSDVSK[αMeF]LDTK([AEEA-AEEA-γGlu-C18 diacid])RAQDFVQWLL[Aib]T-OH; N-terminus assumed): the half-maximal effective concentration (EC50) in assay [1] worked out at 0.0837 nM; in assay [2], 0.335 nM. The “% Relative Potency Ratio” value in assay [1] worked out at 7.9.

In the case of `CC(C)C[C@H](NC(=O)[C@H](Cc1c[nH]c2ccccc12)NC(=O)[C@H](CCC(N)=O)NC(=O)[C@@H](NC(=O)[C@H](Cc1ccccc1)NC(=O)[C@H](CC(=O)O)NC(=O)[C@H](CCCNC(=N)N)NC(=O)[C@H](C)NC(=O)[C@H](CCCNC(=N)N)NC(=O)[C@H](CCCCNC(=O)COCCOCCNC(=O)COCCOCCNC(=O)CC[C@H](NC(=O)CCCCCCCCCCCCCCCCC(=O)O)C(=O)O)NC(=O)[C@H](CO)NC(=O)[C@H](CC(=O)O)NC(=O)[C@H](CC(C)C)NC(=O)[C@](C)(Cc1ccccc1)NC(=O)[C@H](CCCCN)NC(=O)[C@H](CO)NC(=O)[C@@H](NC(=O)[C@H](CC(=O)O)NC(=O)[C@H](CO)NC(=O)[C@@H](NC(=O)[C@H](Cc1ccccc1)NC(=O)[C@@H](NC(=O)CNC(=O)[C@H](CCC(N)=O)NC(=O)C(C)(C)NC(=O)[C@@H](N)Cc1c[nH]cn1)[C@@H](C)O)[C@@H](C)O)C(C)C)C(C)C)C(=O)N[C@@H](CC(C)C)C(=O)NC(C)(C)C(=O)N[C@H](C(=O)O)[C@@H](C)O` [Peptide 36] (H-H[Aib]QGTFTSDVSK[αMeF]LDSK([AEEA-AEEA-γGlu-C18 diacid])RARDFVQWLL[Aib]T-OH; N-terminus assumed), the 50% effective concentration (EC50) was 0.0431 nM in assay [1] and 0.278 nM in assay [2]. For the same compound, the “% Relative Potency Ratio” value in assay [1] turned out to be 12.8.

(Values after patent US20250353891A1 (MEDIMMUNE LIMITED, priority 2022, published 2025).)
